Source: ChEMBL document CHEMBL3886805, “Pyrrolotriazinone derivatives as PI3K inhibitors” (2016)

These molecules were tested against T1, Phosphatidylinositol 4,5-bisphosphate 3-kinase catalytic subunit delta isoform (Homo sapiens, UniProt O00329) (assay: [PIP2] was used at its Km.).
T1 sequence (O00329 whole entry): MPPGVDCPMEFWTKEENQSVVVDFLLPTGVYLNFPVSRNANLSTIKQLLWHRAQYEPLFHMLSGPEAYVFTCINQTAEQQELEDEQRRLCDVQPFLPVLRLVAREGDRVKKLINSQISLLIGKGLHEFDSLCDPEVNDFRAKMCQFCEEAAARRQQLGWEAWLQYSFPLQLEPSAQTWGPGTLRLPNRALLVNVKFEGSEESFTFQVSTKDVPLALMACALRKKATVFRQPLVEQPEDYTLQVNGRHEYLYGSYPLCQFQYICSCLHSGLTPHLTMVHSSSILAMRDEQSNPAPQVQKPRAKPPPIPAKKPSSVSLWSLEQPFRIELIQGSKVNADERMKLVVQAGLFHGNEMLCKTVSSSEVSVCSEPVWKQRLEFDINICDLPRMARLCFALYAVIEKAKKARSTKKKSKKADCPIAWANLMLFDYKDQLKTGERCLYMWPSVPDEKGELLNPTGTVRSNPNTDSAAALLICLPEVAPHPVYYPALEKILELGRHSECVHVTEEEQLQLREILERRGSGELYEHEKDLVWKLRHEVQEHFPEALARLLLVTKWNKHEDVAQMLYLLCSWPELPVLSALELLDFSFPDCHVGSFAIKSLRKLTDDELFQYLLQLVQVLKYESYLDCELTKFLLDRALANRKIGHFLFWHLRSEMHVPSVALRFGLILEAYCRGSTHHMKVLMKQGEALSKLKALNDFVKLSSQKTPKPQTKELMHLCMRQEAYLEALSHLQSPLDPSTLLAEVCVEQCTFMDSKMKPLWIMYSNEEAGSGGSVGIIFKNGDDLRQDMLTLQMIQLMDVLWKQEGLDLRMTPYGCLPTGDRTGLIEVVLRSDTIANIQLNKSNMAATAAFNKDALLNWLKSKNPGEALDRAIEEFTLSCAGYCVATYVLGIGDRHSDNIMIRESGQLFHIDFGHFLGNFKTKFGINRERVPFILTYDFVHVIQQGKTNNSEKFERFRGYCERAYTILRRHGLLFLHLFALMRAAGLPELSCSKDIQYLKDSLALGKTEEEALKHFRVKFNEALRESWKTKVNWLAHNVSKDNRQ

Row | Compound | IC50 [nM]
1 | COc1ncc(-c2c(N)ncnc2N[C@@H](C)c2nn3ccc(Br)c3c(=O)n2-c2ccccc2)cc1NS(C)(=O)=O | 25
2 | C[C@H](Nc1ncnc(N)c1C#N)c1nn2ccc(Sc3ccc(O)c(F)c3)c2c(=O)n1-c1ccccc1 | 2
3 | COc1ccc(S(=O)(=O)n2ncc3ccc(-c4c(N)ncnc4N[C@@H](C)c4nn5ccc(C)c5c(=O)n4-c4ccccc4)cc32)cc1 | 0.4
4 | Cc1ccn2nc([C@H](C)Nc3ncnc(N)c3C(=O)Nc3cc(C(N)=O)ccc3O)n(-c3ccccc3)c(=O)c12 | 3
5 | COc1ncc(-c2c(N)ncnc2N[C@@H](C)c2nn3ccc(C)c3c(=O)n2-c2ccccc2)cc1NS(=O)(=O)C(F)(F)F | 1
6 | Cc1ccn2nc([C@H](C)Nc3ncnc(N)c3C(=O)Nc3cccc(O)c3)n(-c3ccccc3)c(=O)c12 | 3
